# Legend:
# [1] = biological target: T1, cGMP-specific 3',5'-cyclic phosphodiesterase (Homo sapiens, UniProt O76074)
# [2] = Apparent oral volume of distribution in Swiss mouse at 10 mg/kg, po; type: ADME, organism-based; design: dose 10 mg/kg, route oral; conditions: in vivo
# [3] = biological target: High affinity 3',5'-cyclic-AMP phosphodiesterase 7A (Homo sapiens, UniProt Q13946); assay: Inhibition of GST-tagged recombinant human PDE7A1
# [4] = biological target: Dual 3',5'-cyclic-AMP and -GMP phosphodiesterase 11A (Homo sapiens, UniProt Q9HCR9); assay: Inhibition of GST-tagged recombinant human PDE11A4
# Chain of Dual 3',5'-cyclic-AMP and -GMP phosphodiesterase 11A (Q9HCR9 whole entry): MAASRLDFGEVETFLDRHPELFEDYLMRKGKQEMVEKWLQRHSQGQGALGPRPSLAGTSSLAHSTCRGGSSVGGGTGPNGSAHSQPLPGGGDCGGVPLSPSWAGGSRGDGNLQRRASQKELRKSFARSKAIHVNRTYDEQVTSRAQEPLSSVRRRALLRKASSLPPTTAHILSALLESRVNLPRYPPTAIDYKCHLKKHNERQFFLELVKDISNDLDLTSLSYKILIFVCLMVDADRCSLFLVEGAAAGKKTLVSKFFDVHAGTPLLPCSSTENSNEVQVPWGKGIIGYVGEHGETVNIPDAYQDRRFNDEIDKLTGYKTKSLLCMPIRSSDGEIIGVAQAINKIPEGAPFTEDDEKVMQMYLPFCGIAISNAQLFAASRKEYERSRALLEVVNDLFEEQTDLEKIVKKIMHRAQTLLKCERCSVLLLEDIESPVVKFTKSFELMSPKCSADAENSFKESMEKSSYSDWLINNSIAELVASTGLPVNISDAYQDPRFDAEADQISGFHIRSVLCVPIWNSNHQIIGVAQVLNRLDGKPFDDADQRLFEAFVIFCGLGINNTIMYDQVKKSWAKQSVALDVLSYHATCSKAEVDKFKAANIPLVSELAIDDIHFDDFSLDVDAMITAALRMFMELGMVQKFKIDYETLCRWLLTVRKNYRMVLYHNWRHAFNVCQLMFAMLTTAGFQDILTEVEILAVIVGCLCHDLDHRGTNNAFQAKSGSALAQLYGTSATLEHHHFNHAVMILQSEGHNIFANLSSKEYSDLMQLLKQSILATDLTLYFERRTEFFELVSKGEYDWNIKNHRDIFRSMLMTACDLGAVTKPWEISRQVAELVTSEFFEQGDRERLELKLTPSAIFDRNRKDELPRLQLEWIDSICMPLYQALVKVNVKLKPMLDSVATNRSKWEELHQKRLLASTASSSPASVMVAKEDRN
# [5] = AUC (0 to infinity) in Balbc mouse at 1 mg/kg, ip; type: ADME, organism-based; design: time infinity, dose 1 mg/kg, route intraperitoneal; conditions: plasma
# [6] = biological target: High affinity cAMP-specific and IBMX-insensitive 3',5'-cyclic phosphodiesterase 8A (Homo sapiens, UniProt O60658); assay: Inhibition of GST-tagged recombinant human PDE8A1
# Chain of High affinity cAMP-specific and IBMX-insensitive 3',5'-cyclic phosphodiesterase 8A (O60658 whole entry): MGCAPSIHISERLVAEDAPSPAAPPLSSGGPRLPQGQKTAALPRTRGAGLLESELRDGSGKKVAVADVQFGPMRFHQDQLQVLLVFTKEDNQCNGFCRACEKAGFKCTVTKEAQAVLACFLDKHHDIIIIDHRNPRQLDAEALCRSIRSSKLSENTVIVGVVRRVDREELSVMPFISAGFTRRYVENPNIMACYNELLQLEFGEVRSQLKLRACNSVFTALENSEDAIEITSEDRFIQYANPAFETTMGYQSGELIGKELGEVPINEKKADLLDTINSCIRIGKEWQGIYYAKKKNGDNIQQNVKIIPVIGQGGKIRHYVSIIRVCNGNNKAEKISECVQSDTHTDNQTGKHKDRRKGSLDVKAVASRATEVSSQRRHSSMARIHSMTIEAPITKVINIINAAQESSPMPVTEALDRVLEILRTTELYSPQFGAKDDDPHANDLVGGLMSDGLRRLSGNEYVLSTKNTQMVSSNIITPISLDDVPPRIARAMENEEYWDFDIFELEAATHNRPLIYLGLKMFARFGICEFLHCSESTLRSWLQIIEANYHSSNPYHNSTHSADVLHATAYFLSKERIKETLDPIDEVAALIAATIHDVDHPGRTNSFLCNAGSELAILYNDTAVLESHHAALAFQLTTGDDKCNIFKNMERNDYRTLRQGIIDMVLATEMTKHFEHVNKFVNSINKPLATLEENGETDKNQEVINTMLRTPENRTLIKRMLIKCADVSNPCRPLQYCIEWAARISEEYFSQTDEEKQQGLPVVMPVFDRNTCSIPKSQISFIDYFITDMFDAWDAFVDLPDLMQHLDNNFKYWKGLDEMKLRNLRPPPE
# [7] = AUC (0 to infinity) in Swiss mouse at 10 mg/kg, po; type: ADME, organism-based; design: time infinity, dose 10 mg/kg, route oral; conditions: plasma
# [8] = system: Oryctolagus cuniculus; assay: Induction of penile erection in conscious rabbit model assessed as area under curve of length of uncovered penile mucosa at 3 mg/kg, iv into ear vain
# [9] = biological target: CYP3A4 (Homo sapiens, UniProt P08684); assay: Inhibition of CYP3A4 (unknown origin) at 10 uM; type: ADME
# Chain of CYP3A4 (P08684 whole entry): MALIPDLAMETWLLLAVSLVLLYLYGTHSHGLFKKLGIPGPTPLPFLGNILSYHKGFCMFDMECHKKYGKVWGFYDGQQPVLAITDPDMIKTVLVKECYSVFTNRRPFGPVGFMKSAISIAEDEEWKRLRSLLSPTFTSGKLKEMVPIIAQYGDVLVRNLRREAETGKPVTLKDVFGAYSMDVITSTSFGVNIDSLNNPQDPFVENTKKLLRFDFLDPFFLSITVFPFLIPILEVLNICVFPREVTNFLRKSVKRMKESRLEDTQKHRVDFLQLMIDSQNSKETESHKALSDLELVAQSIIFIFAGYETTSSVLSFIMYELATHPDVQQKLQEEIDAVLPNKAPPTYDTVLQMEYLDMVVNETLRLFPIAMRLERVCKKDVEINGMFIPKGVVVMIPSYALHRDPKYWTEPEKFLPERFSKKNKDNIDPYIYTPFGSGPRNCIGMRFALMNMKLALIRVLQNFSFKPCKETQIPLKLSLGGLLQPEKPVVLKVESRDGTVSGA
# [10] = biological target: cAMP and cAMP-inhibited cGMP 3',5'-cyclic phosphodiesterase 10A (Homo sapiens, UniProt Q9Y233); assay: Inhibition of PDE10A1 (unknown origin) using fluorescently labeled cAMP substrate by fluorescence polarization assay
# Chain of cAMP and cAMP-inhibited cGMP 3',5'-cyclic phosphodiesterase 10A (Q9Y233 whole entry): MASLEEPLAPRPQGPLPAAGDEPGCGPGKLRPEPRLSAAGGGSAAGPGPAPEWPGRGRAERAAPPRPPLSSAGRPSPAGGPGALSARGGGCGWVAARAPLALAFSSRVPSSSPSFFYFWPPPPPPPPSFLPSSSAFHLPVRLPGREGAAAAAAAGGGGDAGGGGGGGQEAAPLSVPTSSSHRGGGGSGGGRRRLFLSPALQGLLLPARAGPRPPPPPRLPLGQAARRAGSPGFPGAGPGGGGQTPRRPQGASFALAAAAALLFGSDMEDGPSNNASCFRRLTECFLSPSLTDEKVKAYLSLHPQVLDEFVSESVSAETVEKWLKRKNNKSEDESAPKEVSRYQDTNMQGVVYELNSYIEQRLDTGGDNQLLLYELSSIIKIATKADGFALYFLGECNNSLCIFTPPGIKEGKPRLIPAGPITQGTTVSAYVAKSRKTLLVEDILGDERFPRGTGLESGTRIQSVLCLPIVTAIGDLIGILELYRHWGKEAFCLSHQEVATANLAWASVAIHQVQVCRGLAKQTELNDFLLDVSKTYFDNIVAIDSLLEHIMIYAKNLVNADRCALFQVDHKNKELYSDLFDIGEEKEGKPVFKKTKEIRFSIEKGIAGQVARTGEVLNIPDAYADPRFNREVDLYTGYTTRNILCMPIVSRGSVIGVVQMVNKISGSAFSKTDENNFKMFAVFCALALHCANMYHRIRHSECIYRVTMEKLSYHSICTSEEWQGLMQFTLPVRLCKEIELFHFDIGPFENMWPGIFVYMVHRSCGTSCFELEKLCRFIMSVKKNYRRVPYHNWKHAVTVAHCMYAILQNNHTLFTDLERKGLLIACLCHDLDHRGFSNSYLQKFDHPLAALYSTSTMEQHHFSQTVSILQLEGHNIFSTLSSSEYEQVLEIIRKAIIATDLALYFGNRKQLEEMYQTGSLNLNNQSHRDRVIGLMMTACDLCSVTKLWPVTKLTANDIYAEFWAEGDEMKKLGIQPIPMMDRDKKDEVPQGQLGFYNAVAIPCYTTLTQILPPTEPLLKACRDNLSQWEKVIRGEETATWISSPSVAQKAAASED
# [11] = biological target: CYP2C9 (Homo sapiens, UniProt P11712); assay: Inhibition of CYP2C9 (unknown origin) at 10 uM; type: ADME
# Chain of CYP2C9 (P11712 whole entry): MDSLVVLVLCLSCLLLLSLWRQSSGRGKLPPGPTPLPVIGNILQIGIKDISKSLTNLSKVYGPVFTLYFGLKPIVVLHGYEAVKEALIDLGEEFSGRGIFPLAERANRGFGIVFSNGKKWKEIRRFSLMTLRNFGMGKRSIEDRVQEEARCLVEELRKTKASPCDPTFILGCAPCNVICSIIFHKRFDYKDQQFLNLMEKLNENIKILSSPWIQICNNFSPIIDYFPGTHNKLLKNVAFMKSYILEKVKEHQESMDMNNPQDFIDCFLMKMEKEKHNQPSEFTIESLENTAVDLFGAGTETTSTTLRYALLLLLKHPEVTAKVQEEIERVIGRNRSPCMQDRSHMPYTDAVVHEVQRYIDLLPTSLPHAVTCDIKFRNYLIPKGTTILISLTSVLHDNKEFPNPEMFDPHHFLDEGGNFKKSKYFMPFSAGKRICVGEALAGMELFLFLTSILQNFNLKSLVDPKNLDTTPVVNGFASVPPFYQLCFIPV
# [12] = biological target: High affinity cGMP-specific 3',5'-cyclic phosphodiesterase 9A (Homo sapiens, UniProt O76083); assay: Inhibition of GST-tagged recombinant human PDE9A2
# [13] = Solubility in simulated gastric fluid; type: ADME, Stomach
# [14] = Tmax in Swiss mouse at 10 mg/kg, po; type: ADME, organism-based; design: dose 10 mg/kg, route oral; conditions: in vivo
# [15] = Solubility in simulated intestinal fluid; type: ADME
# [16] = biological target: cGMP-inhibited 3',5'-cyclic phosphodiesterase 3A (Homo sapiens, UniProt Q14432); assay: Inhibition of PDE3A (unknown origin) using fluorescently labeled cAMP substrate by fluorescence polarization assay
# [17] = in vitro; conditions: human, Caco-2
# [18] = Dissociation constant, pKa of the compound; type: physicochemical
# [19] = biological target: cGMP-dependent 3',5'-cyclic phosphodiesterase (Homo sapiens, UniProt O00408); assay: Inhibition of PDE2A1 (unknown origin) using fluorescently labeled cAMP substrate by fluorescence polarization assay
# [20] = biological target: Cone cGMP-specific 3',5'-cyclic phosphodiesterase subunit alpha' (Homo sapiens, UniProt P51160); assay: Inhibition of PDE6C (unknown origin)
# [21] = Cmax in Balbc mouse at 1 mg/kg, ip; type: ADME, organism-based; design: dose 1 mg/kg, route intraperitoneal; conditions: in vivo
# [22] = Fraction unbound in whole blood (unknown origin); type: ADME, tissue-based
# [23] = Apparent oral volume of distribution in Balbc mouse at 1 mg/kg, iv; type: ADME, organism-based; design: dose 1 mg/kg, route oral; conditions: in vivo
# [24] = Solubility in PBS; type: physicochemical
# [25] = Solubility in water; type: physicochemical
# [26] = Apparent oral clearance in Balbc mouse at 1 mg/kg, iv; type: ADME, organism-based; design: dose 1 mg/kg, route oral; conditions: in vivo
# [27] = Tmax in Balbc mouse at 1 mg/kg, ip; type: ADME, organism-based; design: dose 1 mg/kg, route intraperitoneal; conditions: in vivo
# [28] = Passive permeability across basolateral to apical side in human Caco2 cells; type: ADME, cell-based; conditions: Caco-2, read-out: permeability
# [29] = biological target: 3',5'-cyclic-AMP phosphodiesterase 4A (Homo sapiens, UniProt P27815); assay: Inhibition of PDE4A1 (unknown origin) using fluorescently labeled cAMP substrate by fluorescence polarization assay
# [30] = system: Plasma; assay: Initial plasma concentration in Swiss mouse at 10 mg/kg, po; type: ADME, organism-based; design: dose 10 mg/kg, route oral; conditions: in vivo
# [31] = Lipophilicity, log D of the compound; type: physicochemical; conditions: octanol/water
# [32] = Cmax in Swiss mouse at 10 mg/kg, po; type: ADME, organism-based; design: dose 10 mg/kg, route oral; conditions: in vivo
# [33] = Passive permeability across apical to basolateral side in human Caco2 cells; type: ADME, cell-based
# [34] = AUC (0 to infinity) in Balbc mouse at 1 mg/kg, iv; type: ADME, organism-based; design: time infinity, dose 1 mg/kg, route intravenous; conditions: plasma
# [35] = Half life in Swiss mouse at 10 mg/kg, po; type: ADME, organism-based; design: dose 10 mg/kg, route oral; conditions: in vivo
# [36] = Apparent oral clearance in Swiss mouse at 10 mg/kg, po; type: ADME, organism-based; design: dose 10 mg/kg, route oral; conditions: in vivo
# [37] = Cmax in Balbc mouse at 1 mg/kg, iv; type: ADME, organism-based; design: dose 1 mg/kg, route intravenous; conditions: in vivo
# [38] = Metabolic stability in mouse liver microsomes assessed as metabolized drug; type: ADME; conditions: read-out: Drug metabolism
# [39] = AUC (0 to time) in Balbc mouse at 1 mg/kg, ip; type: ADME, organism-based; design: dose 1 mg/kg, route intraperitoneal; conditions: plasma
# [40] = Lipophilicity, log P of the compound; type: physicochemical; conditions: octanol/water
# [41] = biological target: Dual specificity calcium/calmodulin-dependent 3',5'-cyclic nucleotide phosphodiesterase 1A (Homo sapiens, UniProt P54750); assay: Inhibition of PDE1A1 (unknown origin) using fluorescently labeled cAMP substrate by fluorescence polarization assay
# Chain of Dual specificity calcium/calmodulin-dependent 3',5'-cyclic nucleotide phosphodiesterase 1A (P54750 whole entry): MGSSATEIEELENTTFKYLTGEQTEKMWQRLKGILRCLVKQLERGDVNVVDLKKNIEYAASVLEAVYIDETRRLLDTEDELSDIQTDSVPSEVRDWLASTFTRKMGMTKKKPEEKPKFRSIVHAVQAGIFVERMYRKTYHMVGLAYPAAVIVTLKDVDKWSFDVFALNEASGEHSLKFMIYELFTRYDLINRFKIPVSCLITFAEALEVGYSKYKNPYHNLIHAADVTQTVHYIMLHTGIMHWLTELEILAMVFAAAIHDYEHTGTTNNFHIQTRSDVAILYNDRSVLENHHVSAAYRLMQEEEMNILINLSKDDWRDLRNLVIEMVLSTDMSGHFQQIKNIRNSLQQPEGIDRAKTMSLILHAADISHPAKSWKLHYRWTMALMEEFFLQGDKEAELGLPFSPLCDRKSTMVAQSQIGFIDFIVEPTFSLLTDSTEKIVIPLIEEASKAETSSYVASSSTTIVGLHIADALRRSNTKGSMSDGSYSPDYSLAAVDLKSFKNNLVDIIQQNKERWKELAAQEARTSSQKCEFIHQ
# [42] = AUC (0 to time) in Balbc mouse at 1 mg/kg, iv; type: ADME, organism-based; design: dose 1 mg/kg, route intravenous; conditions: plasma
# [43] = Plasma protein binding (unknown origin); type: ADME, cell-free; conditions: read-out: PPB (converted)
# [44] = AUC (0 to time) in Swiss mouse at 10 mg/kg, po; type: ADME, organism-based; design: dose 10 mg/kg, route oral; conditions: plasma
# [45] = biological target: T1, cGMP-specific 3',5'-cyclic phosphodiesterase; assay: Inhibition of PDE5A1 (unknown origin)
# Chain of High affinity 3',5'-cyclic-AMP phosphodiesterase 7A (Q13946 whole entry): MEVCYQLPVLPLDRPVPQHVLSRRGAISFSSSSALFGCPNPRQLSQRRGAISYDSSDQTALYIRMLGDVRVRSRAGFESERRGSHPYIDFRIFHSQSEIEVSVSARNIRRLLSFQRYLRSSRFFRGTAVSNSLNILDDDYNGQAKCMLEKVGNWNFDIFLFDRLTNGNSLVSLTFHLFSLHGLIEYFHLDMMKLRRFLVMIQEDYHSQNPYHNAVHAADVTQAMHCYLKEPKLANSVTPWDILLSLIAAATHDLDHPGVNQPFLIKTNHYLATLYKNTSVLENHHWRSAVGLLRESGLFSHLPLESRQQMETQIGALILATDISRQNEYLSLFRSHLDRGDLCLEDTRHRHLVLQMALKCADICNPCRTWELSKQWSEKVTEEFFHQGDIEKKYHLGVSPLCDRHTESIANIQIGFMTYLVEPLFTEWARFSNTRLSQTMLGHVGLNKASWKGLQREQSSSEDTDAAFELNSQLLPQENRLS
smiles,measurement,setting,value
CCCc1nn(C)c2c(=O)[nH]c(-c3cc(S(=O)(=O)NCCCCCO)ccc3OCC)nc12,IC50,[1],1.7 nM
CCCc1nn(C)c2c(=O)[nH]c(-c3cc(S(=O)(=O)NCCN4CCOCC4)ccc3OCC)nc12,IC50,[1],1.6 nM
CCCCCCCNS(=O)(=O)c1ccc(OCC)c(-c2nc3c(CCC)nn(C)c3c(=O)[nH]2)c1,IC50,[1],3.9 nM
CCCc1nn(C)c2c(=O)[nH]c(-c3cc(S(=O)(=O)NCc4ccc(OC)c(F)c4)ccc3OCC)nc12,IC50,[1],3.3 nM
CCCc1nn(C)c2c(=O)[nH]c(-c3cc(S(=O)(=O)NCCCO)ccc3OCC)nc12,IC50,[1],3.4 nM
CCCc1nn(C)c2c(=O)[nH]c(-c3cc(S(=O)(=O)NCCCCCCO)ccc3OCC)nc12,Vd/F,[2],76.8 L/kg
same,IC50,[3]; read-out: IC50,> 10000 nM
same,IC50,[4],1400 nM
same,AUC(0-inf),[5],71 ng·h/mL
same,IC50,[6],> 10000 nM
same,AUC(0-inf),[7],156 ng·h/mL
same,AUC,[8],432
same,inhibition at 10 µM,[9],50%
same,IC50,[10],2000 nM
same,inhibition at 10 µM,[11],56%
same,IC50,[12],3800 nM
same,solubility,[13],80 µM
same,IC50,[1],1.5 nM
same,Tmax,[14],4.98 min
same,solubility,[15],10 µM
same,IC50,[16],> 10000 nM
same,efflux ratio,[17],6
same,pKa,[18],5.22
same,IC50,[19],560 nM
same,IC50,[20],5.2 nM
same,Cmax,[21],105 ng/mL
same,fraction unbound,[22],0.023
same,Vd/F,[23],1.65 L/kg
same,solubility,[24],20 µM
same,solubility,[25],20 µM
same,CL/F,[26],204 mL/min/kg
same,Tmax,[27],30 min
same,Papp B→A,[28],54.4 ×10⁻⁶ cm/s
same,IC50,[29],3700 nM
same,C0,[30],556 ng/mL
same,logD,[31],2.73
same,Cmax,[32],380 ng/mL
same,Papp A→B,"[33]; Caco-2, read-out: permeability",9.1 ×10⁻⁶ cm/s
same,AUC(0-inf),[34],81.8 ng·h/mL
same,half-life,[35],48 min
same,CL/F,[36],1070 mL/min/kg
same,Cmax,[37],221 ng/mL
same,metabolised,[38],> 95%
same,AUC,[39],69.4 ng·h/mL
same,logP,[40],2.73
same,IC50,[41],62 nM
same,AUC,[42],80 ng·h/mL
same,fraction unbound,[43],0.023
same,AUC,[44],134 ng·h/mL
same,IC50,[45],1.5 nM
CCCc1nn(C)c2c(=O)[nH]c(-c3cc(S(=O)(=O)NCCN(CC)CC)ccc3OCC)nc12,IC50,[1],32 nM
CCCc1nn(C)c2c(=O)[nH]c(-c3cc(S(=O)(=O)NCCCN4CCOCC4)ccc3OCC)nc12,IC50,[1],2.6 nM
CCCc1nn(C)c2c(=O)[nH]c(-c3cc(S(=O)(=O)NCCCCO)ccc3OCC)nc12,IC50,[1],1.9 nM
CCCc1nn(C)c2c(=O)[nH]c(-c3cc(S(=O)(=O)N4CCN(C)CC4)ccc3OCC)nc12,IC50,[3],22000 nM
same,AUC,[8],305
same,pKa,[18],4.86
same,fraction unbound,[22],0.066
same,Papp B→A,[28],45.5 ×10⁻⁶ cm/s
same,logD,[31],2.69
same,permeability,[33]; Caco-2,37.9 ×10⁻⁶ cm/s
same,metabolised,[38],90%
same,logP,[40],2.58
same,IC50,[41],600 nM
same,fraction unbound,[43],0.04
CCCc1nn(C)c2c(=O)[nH]c(-c3cc(S(=O)(=O)NCCN4CCCCC4)ccc3OCC)nc12,IC50,[1],16 nM
CCCc1nn(C)c2c(=O)[nH]c(-c3cc(S(=O)(=O)NCCc4c[nH]c5ccccc45)ccc3OCC)nc12,IC50,[1],13 nM
CCCc1nn(C)c2c(=O)[nH]c(-c3cc(S(=O)(=O)NCCCN(C)C)ccc3OCC)nc12,IC50,[1],14 nM
CCCCCCNS(=O)(=O)c1ccc(OCC)c(-c2nc3c(CCC)nn(C)c3c(=O)[nH]2)c1,IC50,[1],12 nM

# Source: ChEMBL document CHEMBL3400105, “Discovery of novel pyrazolopyrimidinone analogs as potent inhibitors of phosphodiesterase type-5” (Bioorg Med Chem, 2015)
